Data from ChEMBL document CHEMBL1154538, “Studies on a series of potent, orally bioavailable, 5-HT(1) receptor ligands--part II” (Bioorg Med Chem Lett, 2009).
Active and inactive are the calls of the source. The calls are words filed in the database; no cut-off is given here.

How the values were obtained:
[1] = Half life in rat at 1 mg/kg, iv; assay type: ADME, organism-based; design: dose 1 mg/kg, route intravenous; details: in vivo
[2] = molecular target: T1, 5-hydroxytryptamine receptor 1B (Homo sapiens, UniProt P28222); assay: Displacement of [3H]5HT from human 5HT1B receptor expressed in CHO cells; assay type: cell-based
T1 sequence (P28222 whole entry): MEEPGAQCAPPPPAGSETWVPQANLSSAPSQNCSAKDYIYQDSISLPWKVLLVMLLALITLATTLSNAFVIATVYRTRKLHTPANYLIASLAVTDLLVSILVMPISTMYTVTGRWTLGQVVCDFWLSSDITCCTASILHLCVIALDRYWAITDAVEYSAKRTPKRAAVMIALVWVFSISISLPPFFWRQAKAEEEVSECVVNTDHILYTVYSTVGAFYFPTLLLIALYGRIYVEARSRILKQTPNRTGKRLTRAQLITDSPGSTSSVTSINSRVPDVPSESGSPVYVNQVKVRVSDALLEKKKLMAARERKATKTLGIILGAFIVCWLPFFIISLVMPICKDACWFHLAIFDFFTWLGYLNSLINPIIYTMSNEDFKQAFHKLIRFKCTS

[3] = Volume of distribution at steady state rat; assay type: ADME, organism-based; details: in vivo, read-out: Vdss
[4] = Metabolic stability in rat microsomes assessed as intrinsic clearance; assay type: ADME, Microsome
[5] = molecular target: T2, 5-hydroxytryptamine receptor 1D (Homo sapiens, UniProt P28221); assay: Displacement of 3H]5HT from human 5HT1D receptor expressed in CHO cells; assay type: cell-based
T2 sequence (P28221 whole entry): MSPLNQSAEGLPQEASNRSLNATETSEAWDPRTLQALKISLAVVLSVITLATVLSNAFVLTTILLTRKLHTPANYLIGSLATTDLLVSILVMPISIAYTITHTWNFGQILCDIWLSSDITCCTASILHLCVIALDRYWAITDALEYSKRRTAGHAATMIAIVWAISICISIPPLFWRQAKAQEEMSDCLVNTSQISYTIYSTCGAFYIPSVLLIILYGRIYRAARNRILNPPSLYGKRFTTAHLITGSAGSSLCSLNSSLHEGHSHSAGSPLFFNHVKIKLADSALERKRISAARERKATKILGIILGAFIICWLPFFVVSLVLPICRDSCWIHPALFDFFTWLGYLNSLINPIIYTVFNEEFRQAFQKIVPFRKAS

[6] = Metabolic stability in human microsomes assessed as intrinsic clearance; assay type: ADME, Microsome
[7] = molecular target: T2, 5-hydroxytryptamine receptor 1D; assay: Intrinsic activity at human 5HT1D receptor expressed in CHO cells by [35S]GTPgammaS binding assay; assay type: functional, cell-based
[8] = Ratio of drug level in brain to blood in rat at 3 mg/kg, po; assay type: ADME, organism-based; design: dose 3 mg/kg, route oral; details: read-out: BBR
[9] = molecular target: T1, 5-hydroxytryptamine receptor 1B; assay: Intrinsic activity at human 5HT1B receptor expressed in CHO cells by [35S]GTPgammaS binding assay; assay type: functional, cell-based
[10] = molecular target: T3, 5-hydroxytryptamine receptor 1A (Homo sapiens, UniProt P08908); assay: Displacement of [125I]WAY100635 from human 5HT1A receptor expressed in CHO cells; assay type: cell-based
T3 sequence (P08908 whole entry): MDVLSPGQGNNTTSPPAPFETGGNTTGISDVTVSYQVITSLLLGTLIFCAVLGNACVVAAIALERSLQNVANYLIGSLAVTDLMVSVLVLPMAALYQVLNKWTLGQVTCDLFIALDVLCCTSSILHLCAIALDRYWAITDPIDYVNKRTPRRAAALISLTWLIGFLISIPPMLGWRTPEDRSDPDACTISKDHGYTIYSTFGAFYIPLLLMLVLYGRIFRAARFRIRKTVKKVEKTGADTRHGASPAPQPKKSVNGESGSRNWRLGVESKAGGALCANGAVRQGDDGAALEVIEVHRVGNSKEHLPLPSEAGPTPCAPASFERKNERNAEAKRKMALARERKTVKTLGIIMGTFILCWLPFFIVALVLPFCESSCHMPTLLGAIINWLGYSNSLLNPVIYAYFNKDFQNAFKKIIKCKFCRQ

[11] = Clearance in rat blood at 1 mg/kg, iv; assay type: ADME, organism-based; design: dose 1 mg/kg, route intravenous
[12] = molecular target: T4, 5-hydroxytryptamine receptor 1A (Homo sapiens) (UniProt P08908); assay: Inverse agonist activity at human 5HT1A receptor expressed in CHO cells; assay type: functional, cell-based
T4 sequence (whole entry): T3 sequence (P08908 whole entry)

[13] = Cmax in rat brain at 3 mg/kg, po; assay type: ADME, organism-based; design: dose 3 mg/kg, route oral
[14] = molecular target: T4, 5-hydroxytryptamine receptor 1A (Homo sapiens); assay: Intrinsic activity at human 5HT1A receptor expressed in CHO cells by [35S]GTPgammaS binding assay; assay type: functional, cell-based

SMILES | Ki [2] | Ki [5] | Intrinsic activity [7] | Intrinsic activity [9] | Ki [10] | Intrinsic activity [14] | also measured
Cc1ccc2c(OCCN3CCC(Cc4cccc(C5CCN(C)CC5)c4)CC3)cccc2n1 | 5.01 nM | 0.2 nM | 0.4 | 0.3 | 3.16 nM | – | half-life [1]: 12 h; Vd [3]: 12.4 L/kg; CLint scaled [4]: 2 mL/min/kg; CLint scaled [6]: < 0.5 mL/min/kg; Kp [8]: 1.3; clearance [11]: 14 mL/min/kg; Activity [12]: Active; Cmax [13]: 34 ng/g
Cc1ccc2c(OCCN3CCC(Cc4cccc(N5CCCCC5)c4)CC3)cccc2n1 | 2 nM | 1 nM | 0.7 | 0.6 | 3.98 nM | 0 | CLint scaled [4]: 6.2 mL/min/kg
Cc1ccc2c(OCCN3CCC(Cc4cccc(N5C[C@@H](C)N[C@@H](C)C5)c4)CC3)cccc2n1 | 3.98 nM | 0.794 nM | 0.5 | 0.3 | 2 nM | 0 | –
Cc1ccc2c(OCCN3CCC(Cc4cccc(N5CCN(C)CC5=O)c4)CC3)cccc2n1 | 63.1 nM | 3.98 nM | – | – | 20 nM | – | –
Cc1ccc2c(OCCN3CCC(Cc4cccc(N5CCOCC5)c4)CC3)cccc2n1 | 126 nM | 2.51 nM | 0.6 | 0.4 | 5.01 nM | 0 | –
Cc1ccc2c(OCCN3CCC(Cc4cccc(N5CCN[C@H](C)C5)c4)CC3)cccc2n1 | 2 nM | 0.631 nM | 0.5 | 0.3 | 2.51 nM | 0 | –
Cc1ccc2c(OCCN3CCC(Cc4cccc(N5CCN(C)CC5)c4)CC3)cccc2n1 | 6.31 nM | 0.501 nM | 0.4 | 0.3 | 1 nM | 0 | half-life [1]: 1.3 h; Vd [3]: 4.4 L/kg; CLint scaled [4]: 2.9 mL/min/kg; CLint scaled [6]: 1.6 mL/min/kg; Kp [8]: 18; clearance [11]: 46 mL/min/kg; Cmax [13]: 85 ng/g
Cc1ccc2c(OCCN3CCC(Cc4cccc(N5CCCC5)c4)CC3)cccc2n1 | 39.8 nM | 2.51 nM | – | – | 10 nM | – | –
Cc1ccc2c(OCCN3CCC(Cc4cccc(N5C[C@@H](C)NC[C@@H]5C)c4)CC3)cccc2n1 | 31.6 nM | 1 nM | – | – | 5.01 nM | – | –
Cc1ccc2c(OCCN3CCC(Cc4cccc(N5CCN[C@@H](C)C5)c4)CC3)cccc2n1 | 15.8 nM | 1 nM | 0.5 | 0.3 | 3.98 nM | 0 | –
Cc1ccc2c(OCCN3CCC(Cc4cccc(-c5ccoc5)c4)CC3)cccc2n1 | 39.8 nM | 6.31 nM | – | – | 31.6 nM | – | –
Cc1ccc2c(OCCN3CCC(Cc4cccc(-c5ccncc5)c4)CC3)cccc2n1 | 7.94 nM | 1 nM | – | – | 7.94 nM | – | –
Cc1ccc2c(OCCN3CCC(Cc4cccc(NC(=O)CN(C)C)c4)CC3)cccc2n1 | – | – | 0.4 | 0.2 | – | – | Activity [12]: Active
Cc1ccc2c(OCCN3CCC(Cc4cccc(-c5cccnc5)c4)CC3)cccc2n1 | 12.6 nM | 2 nM | – | – | 5.01 nM | – | –
Cc1ccc2c(OCCN3CCC(Cc4cccc(N5C[C@@H](C)O[C@@H](C)C5)c4)CC3)cccc2n1 | 158 nM | 1.58 nM | – | – | 2.51 nM | – | –
Cc1ccc2c(OCCN3CCC(Cc4cccc(N5CCCN(C)CC5)c4)CC3)cccc2n1 | 7.94 nM | 0.631 nM | 0.5 | 0.3 | 2.51 nM | 0 | CLint scaled [4]: 26 mL/min/kg
Cc1ccc2c(OCCN3CCC(Cc4cccc(C5CCNCC5)c4)CC3)cccc2n1 | 6.31 nM | 1.26 nM | – | – | 6.31 nM | – | –
Cc1ccc2c(OCCN3CCC(Cc4cccc(-c5ccccc5)c4)CC3)cccc2n1 | 63.1 nM | 7.94 nM | – | – | 63.1 nM | – | –
Cc1ccc2c(OCCN3CCC(Cc4cccc(NS(C)(=O)=O)c4)CC3)cccc2n1 | – | – | 0 | 0.3 | – | 0 | –
Cc1ccc2c(OCCN3CCC(Cc4cccc(N5CCN(C)C(=O)C5)c4)CC3)cccc2n1 | 126 nM | 10 nM | – | – | 7.94 nM | – | –
CC(=O)N1CCC(c2cccc(CC3CCN(CCOc4cccc5nc(C)ccc45)CC3)c2)CC1 | 158 nM | 3.98 nM | – | – | 12.6 nM | – | –
Cc1ccc2c(OCCN3CCC(Cc4cccc(C5CCN(S(C)(=O)=O)CC5)c4)CC3)cccc2n1 | 79.4 nM | 3.16 nM | – | – | 7.94 nM | – | –
